In patent US20090099197A1 (priority 2005, published 2009):
Entries after “also recorded” stand apart in the source; their conditions may differ. Like-named read-outs stand apart in the source and are kept apart here.

Assays:
wild-type BCR-ABL = conditions: cited from earlier work
[1] = test system: imatinib-resistant BCR-ABL mutants; conditions: cited from earlier work
[2] = test system: K562/ADM (K562 cells over-expressing MDR-1); test: In vitro proliferation/cytotoxicity assay, MDR-1 overexpressing K562/ADM cells; type: cell-based, human; conditions: for IC50: Homo sapiens
Protocol: Two cell lines were used: K562 (erythromyeloblastoid CML) and K562/ADM (K562 cells over-expressing MDR-1).
Experiments were performed as described in Example 1 except that K562/ADM cells were used.

[3] = test system: K562 (erythromyeloblastoid CML) cells; test: cells; conditions: Homo sapiens, K562, 72 h
[4] = test system: K562/STI-571/R tumor xenografts; test: Tumor response in imatinib-resistant K562/STI-571/R xenograft model; type: in vivo, SCID mice
[5] = test system: K562/ADM tumor xenografts; test: Tumor response in SC K562/ADM leukemia xenograft model; type: in vivo, mice; conditions: QDx14
Protocol: (B) Activity versus K562/ADM tumor xenografts. Mice were implanted subcutaneously (SC) on Day 0 with K562/ADM. On Day 18 when tumors were at a size range of 100-200 mg, treatment began. […] Experiments were performed as described in Example 3.
Tumors implanted in mouse xenograft models were allowed to grow to a pre-determined size of 100-300 mg (tumors outside the range were excluded) and animals were evenly distributed to treatment and control groups. Treated animals were checked daily for treatment-related toxicity/mortality. […] The difference in body weight (Wt2−Wt1) provides a measure of treatment-related toxicity. Tumor weights (mg) were estimated from the formula: tumor weight=(length×width^2)/2.
Log cell kill was also used as a measure of anti-tumor activity according to the following equation: log cell kill=T−C/(3.32×TVDT). In this equation: T=mean tumor weight at the end of treatment for the treated group; C=mean tumor weight at the end of treatment for the control group; and TVDT=median time (days) for control tumor weight to reach target size−median time (days) for control tumor weight to reach half the target size.
A maximum tolerated dose (MTD), frequently equivalent to the optimal dose, was defined as a dose immediately below that causing unacceptable toxicity (i.e. more than one death) or, in the absence of any deaths, when accompanied by >20% loss of body weight.

[6] = test system: K562 intracranial CML tumor model; test: Survival of mice bearing intracranial K562 CML; type: in vivo; conditions: BIDx10
Protocol: Extramedullary complications, particular in the CNS, are known risks of Ph+ALL or Ph+CML in lymphoid blast crisis. […] Both drugs were administered orally to mice inoculated intracranially (IC) with K562 cells using a BID×10 treatment schedule.

in vivo = conditions: SCID, mouse
Protocol: Concentrations and dosing frequency are as specified in FIG. 4A. […] Experiments were performed as described in Example 4.

intracranial K562 cells = test: Bioluminescence imaging of intracranially inoculated K562 cells; type: in vivo, SCID mice; conditions: 15 mg/kg, 2qdx14, M-F, po
Protocol: Experiments were performed as described in Example 4.

[7] = test system: K562 (erythromyeloblastoid CML) cells
[8] = test system: K562-R (K562/STI-571/R) imatinib resistant cells
[9] = test system: K562-R (K562/STI-571/R) imatinib resistant cells; test: cells; conditions: Homo sapiens, K-562R
[10] = K562 cells, 72 hours incubation

Structure (SMILES): Cc1cn(-c2cc(NC(=O)c3ccc(C)c(Nc4nccc(-c5cccnc5)n4)c3)cc(C(F)(F)F)c2)cn1 [AMN107]
- imatinib-resistant BCR-ABL mutants/mutations against which active [1]: 32/33

Structure (SMILES): COc1cccc2c1C(=O)c1c(O)c3c(c(O)c1C2=O)C[C@@](O)(C(=O)CO)C[C@@H]3O[C@H]1C[C@H](N)[C@H](O)[C@H](C)O1 [adriamycin]
- IC50 ([2]; K562/ADM cells, read-out: IC50): 1250 nM
- fold resistance (IC50 K562/ADM versus K562) ([2]; K562/ADM versus parent K562 cells): 60 fold
- IC50 [3]: 21 nM

Structure (SMILES): Cc1nc(Nc2ncc(C(=O)Nc3c(C)cccc3Cl)s2)cc(N2CCN(CCO)CC2)n1 [dasatinib, N-(2-chloro-6-methylphenyl)-2-[[6-[4-(2-hydroxyethyl)-1-piperazinyl]-2-methyl-4-pyrimidinyl]amino]-5-thiazolecarboxamide]
- IC50 ([2]; K562, K562/ADM cells): ~3 nM
- effect on tumor ([4]; dasatinib 5 mg/kg (lowest dose)): tumor regressed initially
- effect on tumor size ([4]; dasatinib, all doses except the lowest tested (5 mg/kg)): substantial reductions in tumor size
- anti-leukemic activity ([5]; 5 mg/kg PO): inactive
- growth delay ([5]; 15 mg/kg PO, P=0.0009): 16.7 days
- anti-leukemic activity ([5]; 30 mg/kg PO): completely eliminated tumors
- increase in lifespan (ILS) ([6]; 5 mg/kg/adm oral): 268%
- increase in lifespan (ILS) ([6]; 15 mg/kg/adm oral): 450%
- Kp (in vivo): 0.05 to 0.1
- bioluminescence of intracranial K562 cells after treatment (intracranial K562 cells): virtually no bioluminescence; also recorded: marked reduction of bioluminescence
- IC50 [7, 10]: 0.5 nM
- sensitivity of K562 cells (percent growth inhibition), comparison ([7]; dasatinib versus imatinib or AMN107, FIG. 1A): significantly more sensitive to dasatinib than either imatinib or AMN107
- resistance factor (IC50 K562-R versus K562) [8]: 6 fold
- IC50 [3, 10]: 0.7 nM
- IC50 [9]: 4.4 nM

Structure (SMILES): Cc1ccc(NC(=O)c2ccc(CN3CCN(C)CC3)cc2)cc1Nc1nccc(-c2cccnc2)n1 [imatinib, reference compound]
- effect on tumors ([4]; imatinib 75 and 150 mg/kg three times daily): little or no impact
